{"source": "patent US12630602B2", "about": "“Methods and compositions for treating diseases and disorders of the nervous system” (Rutgers, The State University of New Jersey, priority 2016, dated 2026)", "system": "retinal cells expressing the inhibitory hM4Di DREADD", "assay": "Electroretinography (ERG) after CNO in rats expressing hM4Di DREADD in retina", "type": "in vivo"}
{"smiles": "C[N+]1([O-])CCN(C2=Nc3cc(Cl)ccc3Nc3ccccc32)CC1", "note": "[CNO, clozapine N-oxide]", "values": [{"measurement": "ERG wave", "setting": "CNO by intraperitoneal injection, 20 minutes after, rats with AAV-hSyn-hM4Di (FIG. 2C)", "result": "inhibition of the ERG wave"}, {"measurement": "ERG, function in retinal cells", "setting": "CNO eye drops, 10 minutes and 20 minutes after, rats with AAV-hSyn-hM4Di (FIG. 2D)", "result": "decreased function in retinal cells at both timepoints"}, {"measurement": "eliciting DREADD function, eye drops versus systemic delivery", "setting": "ERG, CNO via eye drops compared with systemic delivery", "result": "at least as successful"}]}
